As a reminder, the half-life is how long it takes for the measured level to halve. Higher therefore signals slow loss.

Read-outs that look alike come from different tables or passages of the source.

Here are results for one compound from patent US11419914B2 (Serenity Pharmaceuticals LLC, priority 2009, dated 2022).

The conditions of data set [1]: in vivo, cited from earlier work.
Data set [2] in a line: clinical. Conditions: human, in vivo, inhaled or intranasal. The procedure:
(§1) The open-label preliminary study of the effects and pharmacokinetics of the prototype dispensers was conducted with six male and six female healthy, water loaded, non-smoking volunteer subjects, following the protocol described generally below. In summary, each subject was dosed up to four times over a period of one week with dosing administered every other day. […] All subjects were screened prior to the first treatment, including evaluations of medical history, complete physical exam including nasopharyngeal exam, serum chemistry including serum osmolality, urinalysis including urine osmolality.
On day one all subjects were asked to have his/her morning void prior to breakfast, and thereafter subjects started the water loading process. […] Insensible loss was not measured or replaced. […]
Blood sampling for pharmacokinetic determinations was performed at 1, 1.5, 2, 3, 4 and 6 hours post dose. […] A plasma concentration value below the limit of quantitation (“LOQ”) followed by values above the limit was set at ‘LOQ/2’ for the analysis and for the descriptive statistics on concentrations. […]
Assay values below the level of detection that occurred between two non-zero concentrations were considered to be “missing” for purposes of calculating the AUC. […] Accordingly, an average terminal half-life (Avg T1/2) was calculated for each subject that included a treatment with evaluable half-lives in that subject. […]

Data set [3] has as its system adult patients with nocturia. In kind it is in vivo, human. Conditions: 500 and 1000 ng (one or two sprays intranasally). How it is done:
A second separate study in adult patients with nocturia established that doses of 500 and 1000 ng (one or two sprays administered intranasally) produced dramatic therapeutic decreases in the number of night time urinary voids equal to or less than one per night in 41 of 43 patients.

Data set [4] has as its system human adult subjects in a water loaded state. Nature of the data set: Antidiuretic effect (urine output, urine osmolarity, duration) in water loaded subjects. In kind it is in vivo. The procedure: as §1
On day one all subjects were asked to have his/her morning void prior to breakfast, and thereafter subjects started the water loading process. […] To achieve a steady state diuresis, the subjects were directed to drink a volume of water corresponding to at least 1.5% and up to 3% of body weight. The water loading process started about two hours prior to the dosing of the first subject. Subjects were asked to void every 20 minutes. To ensure continuous water loaded state, the subjects replaced their urinary output loss with an equivalent amount of fluid. Insensible loss was not measured or replaced. When the urinary output rate exceeded 10 ml/min in two consecutive measurements (defined as water loaded state) in the subjects, dosing began. Subjects were maintained in the water loaded state with equivalent fluid intake versus fluid loss.
Other than the dose level, all procedures were the same as those described for day one.

On to `NC(=O)CC[C@@H]1NC(=O)[C@H](Cc2ccccc2)NC(=O)[C@H](Cc2ccc(O)cc2)NC(=O)CCSSC[C@@H](C(=O)N2CCC[C@H]2C(=O)N[C@H](CCCN=C(N)N)C(=O)NCC(N)=O)NC(=O)[C@H](CC(N)=O)NC1=O` [desmopressin, 1-desamino-8-D-arginine vasopressin], for which the bioavailability in data set [1] (human, inhaled or intranasal) is 3-5%; in data set [1] (po), “far less than one percent”. In data set [1] (human), the half life was at least 1.5 h. The compound also gave a half-life in data set [2] (both sexes, T1/2) of 1.13 ± 0.3 h. The same compound displayed a T1/2 in data set [2] (both) of 1.33 ± 0.56 h. The “patients with night time urinary voids equal to or less than one per night” value in data set [3] is on record as 41 of 43. For the same compound, the “time urine osmolarity remained greater than about 400 mOsmol/Kg” value in data set [4] (after 2 μg nasally) is recorded as “about 250 minutes”. Moreover, the “period urine output remained less than 8 ml/minute” value in data set [4] (after 2000 ng nasally) is “up to 400 minutes”. Besides, the mean urine output entry in data set [4] (within 20 minutes after 2000 ng nasally, water loaded men and women) was “less than 8 ml/minute”. For the same compound, the mean urine osmolarity entry in data set [4] (within 40 minutes after 2 μg nasally) is on record as “greater than 400 mOsmol/kg”.
